According to patent US4400510A, “A-32256 Phenazine antibiotic” (Eli Lilly and Company, priority 1981, dated 1983):
≈ marks a conversion by molar mass, not a printed value.

Key:
[1] = tested on: Propionibacterium acnes; assay: agar-dilution MIC against Propionibacterium acnes; assay type: cell-based; conditions: Cutibacterium acnes, Table 7
Source text: The agar-dilution procedure described by the International Collaborative Study (ICS) group was used to determine MIC values.
Antibiotic A-32256 is also active against a genus of anaerobic bacteria identified as Propionibacterium acnes, the MIC values being determined by the agar-dilution method, and set forth in Table 7, which follows.

[2] = tested on: Bacteroides vulgatis; assay: agar-dilution MIC vs. anaerobic bacteria; assay type: cell-based; conditions: strain 1211; Table 6
[3] = improvement of ruminant feed efficiency; assay type: in vivo
Protocol: Suitable rates of administration are in the range of from about 10 to about 100 g/ton (from about 11 to about 111 ppm) of feed, or from about 0.25 mg to about 2.9 mg/kg of body weight of the ruminant. The preferred level of administration of A-32256 is from about 0.5 to about 1 mg/kg of body weight of ruminant, or about 50 g/ton of feed.

[4] = tested on: mosquito; assay: mosquito larvacide activity; assay type: in vivo; conditions: application rate of about 20 ppm
Source text: Antibiotic A-32256 is also active as a mosquito larvacide at an application rate of about 20 ppm.

[5] = potentiometric titration; assay type: physicochemical; conditions: 66% dimethylformamide in water, initial pH 4.1
Protocol: Antibiotic A-32256 is a green, crystalline solid having a melting point of about 196°-198° C. The antibiotic has a molecular weight of 402, as determined by electron-impact mass spectrometry, and an approximate elemental analysis as follows: 68.71% carbon, 4.48% hydrogen, 6.93% nitrogen, and 19.21% oxygen. Based on elemental analysis and molecular weight, an empirical formula of C23 H18 N2 O5 is assigned to antibiotic A-32256. […] Antibiotic A-32256 has specific rotation of [α]D^25 +5° (c 0.96, chloroform).

[6] = tested on: Clostridium perfringens; assay: microbe, parasite or virus in culture; assay type: cell-based; conditions: Clostridium perfringens, strain 81; Table 6
[7] = tested on: Streptococcus pneumoniae; assay: disc-plate screening procedure, zone of inhibition; conditions: read-out: Zone Diameter
[8] = tested on: Streptococcus pyogenes; assay: disc-plate screening procedure, zone of inhibition; conditions: read-out: Zone Diameter

**Q.** What does the source list for Cc1cccc(O)c1C(=O)OC(C)c1cccc2nc3c(C(=O)O)cccc3nc12 (centres unmarked) [Antibiotic A-32256, 6-[1-[(2-hydroxy-6-methylbenzoyl)oxy]-ethyl]-1-phenazinecarboxylic acid]?
**A.** MIC ([1]; P. acnes 44): ≤ 0.015 µg/mL; MIC ([1]; P. acnes 79): ≤ 0.015 µg/mL; MIC ([1]; P. acnes 101): ≤ 0.015 µg/mL; MIC ([1]; P. acnes 103): ≤ 0.015 µg/mL; MIC ([1]; P. acnes 104): ≤ 0.015 µg/mL; MIC ([1]; P. acnes 105): 0.03 µg/mL (≈ 0.0746 µM); MIC ([1]; P. acnes 106): 0.06 µg/mL (≈ 0.149 µM); MIC ([1]; P. acnes 107): ≤ 0.015 µg/mL; MIC ([1]; P. acnes 108): 0.03 µg/mL (≈ 0.0746 µM); MIC ([1]; P. acnes 5170): ≤ 0.015 µg/mL; MIC ([1]; P. acnes 5176): ≤ 0.015 µg/mL; MIC ([1]; P. acnes 5187): ≤ 0.015 µg/mL; MIC ([1]; P. acnes 5191): 0.06 µg/mL (≈ 0.149 µM); MIC ([1]; P. acnes 5197): ≤ 0.015 µg/mL; MIC ([1]; P. acnes 5226): ≤ 0.015 µg/mL; MIC ([1]; P. acnes 5227): ≤ 0.015 µg/mL; MIC ([1]; P. acnes 5228): ≤ 0.015 µg/mL; MIC ([1]; P. acnes 5229): 0.03 µg/mL (≈ 0.0746 µM); MIC ([1]; P. acnes 5246): ≤ 0.015 µg/mL; MIC [2]: 8 µg/mL (≈ 19.9 µM); improvement of ruminant feed efficiency [3]: has shown utility for the improvement of ruminant feed efficiency; mosquito larvacide activity [4]: active; pKa ([5]; pH 4.1, first titratable group): ~5.02; pKa ([5]; pH 4.1, second titratable group): ~7.2; MIC [6]: 2 µg/mL (≈ 4.97 µM); zone of inhibition at 30 µg/disc [7]: 14 mm; zone of inhibition at 300 µg/disc [7]: 16 mm; zone of inhibition at 30 µg/disc [8]: 11 mm; zone of inhibition at 300 µg/disc [8]: 13 mm
